Measured values reported in ChEMBL document CHEMBL1909046, “DrugMatrix in vitro pharmacology data”.

How the values were obtained:
[1] = DRUGMATRIX: GABAA, Flunitrazepam, Central radioligand binding (ligand: [3H] Flunitrazepam); type: cell membranes, Rattus norvegicus, Wistar, Brain, Membrane; conditions: Not Active = under 50% inhibition at 10 µM
[2] = molecular target: T1, Cysteinyl leukotriene receptor 1 (Homo sapiens, UniProt Q9Y271); type: cell membranes, CHO-K1, Membrane; note: in other assays of this panel Not Active means under 50% inhibition at 10 µM
T1 sequence (Q9Y271 whole entry): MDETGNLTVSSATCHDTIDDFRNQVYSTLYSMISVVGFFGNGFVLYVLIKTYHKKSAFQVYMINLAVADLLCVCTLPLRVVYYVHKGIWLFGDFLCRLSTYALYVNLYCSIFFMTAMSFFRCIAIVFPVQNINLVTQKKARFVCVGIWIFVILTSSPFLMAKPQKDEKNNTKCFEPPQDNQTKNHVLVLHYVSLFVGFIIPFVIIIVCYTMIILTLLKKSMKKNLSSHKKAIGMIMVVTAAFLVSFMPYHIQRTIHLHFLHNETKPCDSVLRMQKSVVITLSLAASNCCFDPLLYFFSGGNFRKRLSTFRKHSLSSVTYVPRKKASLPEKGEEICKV

[3] = DRUGMATRIX: Nicotinic Acetylcholine radioligand binding (ligand: [125I] Epibatidine); type: cell membranes, Membrane; conditions: imr-32; Not Active = under 50% inhibition at 10 µM
[4] = molecular target: Epidermal growth factor receptor (Homo sapiens, UniProt P00533); assay: DRUGMATRIX: Protein Tyrosine Kinase, EGF Receptor enzyme inhibition (substrate: Poly(Glu:Tyr)); type: cell-based, Insect cells; conditions: Not Active = under 50% inhibition at 10 µM
[5] = molecular target: Tyrosine-protein kinase Fyn (Homo sapiens, UniProt P06241); assay: biochemical; type: cell-based, Insect cells;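 note: enzymatic inhibition of Fyn kinase activity measured with Poly(Glu:Tyr) as the phosphorylation substrate; in other assays of this panel Not Active means under 50% inhibition at 10 µM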
Sequence of Tyrosine-protein kinase Fyn (P06241 whole entry): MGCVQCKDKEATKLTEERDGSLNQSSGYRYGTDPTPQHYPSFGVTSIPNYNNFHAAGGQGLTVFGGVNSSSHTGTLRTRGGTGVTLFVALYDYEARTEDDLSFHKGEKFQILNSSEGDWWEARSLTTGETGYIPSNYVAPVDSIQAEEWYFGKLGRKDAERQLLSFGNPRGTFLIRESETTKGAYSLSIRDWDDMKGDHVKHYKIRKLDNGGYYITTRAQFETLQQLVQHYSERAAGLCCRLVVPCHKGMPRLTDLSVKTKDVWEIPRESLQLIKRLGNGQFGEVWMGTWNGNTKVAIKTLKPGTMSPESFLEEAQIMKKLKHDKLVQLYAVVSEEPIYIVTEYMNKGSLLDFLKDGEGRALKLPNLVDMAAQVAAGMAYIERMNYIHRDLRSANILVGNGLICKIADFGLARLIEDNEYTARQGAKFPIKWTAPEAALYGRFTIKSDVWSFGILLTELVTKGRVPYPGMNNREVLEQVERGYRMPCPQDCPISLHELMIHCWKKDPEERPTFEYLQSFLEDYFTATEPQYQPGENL

[6] = molecular target: Mu-type opioid receptor (Homo sapiens, UniProt P35372); assay: DRUGMATRIX: Opiate mu (OP3, MOP) radioligand binding (ligand: [3H] Diprenorphine); type: cell membranes, CHO-K1, Membrane; conditions: Not Active = under 50% inhibition at 10 µM
Sequence of Mu-type opioid receptor (P35372 whole entry): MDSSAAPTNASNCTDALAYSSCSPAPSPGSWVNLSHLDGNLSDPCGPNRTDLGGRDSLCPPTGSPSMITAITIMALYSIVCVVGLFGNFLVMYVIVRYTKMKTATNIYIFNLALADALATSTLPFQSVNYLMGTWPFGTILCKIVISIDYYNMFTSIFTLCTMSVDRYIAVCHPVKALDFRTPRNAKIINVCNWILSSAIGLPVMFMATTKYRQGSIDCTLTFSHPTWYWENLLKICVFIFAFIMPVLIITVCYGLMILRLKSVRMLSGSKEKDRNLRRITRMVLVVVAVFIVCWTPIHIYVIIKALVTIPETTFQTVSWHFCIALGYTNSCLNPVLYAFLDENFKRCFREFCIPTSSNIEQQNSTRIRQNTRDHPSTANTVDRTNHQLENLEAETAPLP

Row | Compound | IC50 [1] | Ki [1] | IC50 ([2]; cho-k1) | IC50 [3] | Ki [3] | IC50 ([4]; insect cells) | IC50 ([5]; insect cells) | IC50 ([6]; cho-k1) | IC50 ([5]; read-out: IC50) | IC50 ([1]; read-out: IC50) | Ki ([1]; read-out: Ki) | IC50 ([4]; read-out: IC50) | IC50 ([2]; read-out: IC50) | Ki ([2]; read-out: Ki) | Ki [6] | IC50 ([6]; read-out: IC50) | Ki ([2]; cho-k1) | Ki ([4]; insect cells) | Ki ([5]; insect cells)
1 | CC(C)(C)NC(=O)[C@@H]1C[C@@H]2CCCC[C@@H]2CN1C[C@@H](O)[C@H](Cc1ccccc1)NC(=O)[C@H](CC(N)=O)NC(=O)c1ccc2ccccc2n1 | Not Active | Not Active | Not Active | Not Active | Not Active | Not Active | Not Active |  |  |  |  |  |  |  |  |  |  |  | 
2 | CC(=O)[C@@]1(O)CC[C@H]2[C@@H]3C[C@H](C)C4=CC(=O)CC[C@]4(C)[C@H]3CC[C@@]21C | Not Active | Not Active | Not Active | Not Active | Not Active | Not Active | Not Active | Not Active |  |  |  |  |  |  |  |  |  |  | 
3 | N[C@@H](Cc1ccc(N(CCCl)CCCl)cc1)C(=O)O | Not Active | Not Active | Not Active | Not Active | Not Active | Not Active | Not Active |  |  |  |  |  |  |  |  |  |  |  | 
4 | CCCCc1oc2ccccc2c1C(=O)c1cc(I)c(OCCN(CC)CC)c(I)c1 [AMIODARONE] |  |  | Not Active |  |  | Not Active |  |  | 0.817 µM |  |  |  |  |  |  |  |  |  | 
5 | OCCN(CCO)c1nc(N2CCCCC2)c2nc(N(CCO)CCO)nc(N3CCCCC3)c2n1 [DIPYRIDAMOLE] |  |  | Not Active | Not Active | Not Active | Not Active | Not Active | Not Active |  | 0.382 µM | 0.311 µM |  |  |  |  |  |  |  | 
6 | Cc1oncc1C(=O)Nc1ccc(C(F)(F)F)cc1 [LEFLUNOMIDE] | Not Active | Not Active | Not Active | Not Active | Not Active | Not Active | Not Active | Not Active |  |  |  |  |  |  |  |  |  |  | 
7 | c1ccc([C@H]2CN3CCSC3=N2)cc1 [LEVAMISOLE] | Not Active | Not Active | Not Active | Not Active | Not Active | Not Active | Not Active | Not Active |  |  |  |  |  |  |  |  |  |  | 
8 | N[C@@H](Cc1ccc(O)c(O)c1)C(=O)O [LEVODOPA] | Not Active | Not Active | Not Active | Not Active | Not Active |  |  | Not Active | 2.15 µM |  |  | 2.88 µM |  |  |  |  |  |  | 
9 | N[C@@H](Cc1cc(I)c(Oc2ccc(O)c(I)c2)c(I)c1)C(=O)O [LIOTHYRONINE] |  |  | Not Active |  |  | Not Active | Not Active | Not Active |  |  |  |  |  |  |  |  |  |  | 
10 | O=NN(CCCl)C(=O)NC1CCCCC1 [LOMUSTINE] | Not Active | Not Active | Not Active | Not Active | Not Active | Not Active | Not Active | Not Active |  |  |  |  |  |  |  |  |  |  | 
11 | CCOC(=O)N1CCC(=C2c3ccc(Cl)cc3CCc3cccnc32)CC1 [LORATADINE] | Not Active | Not Active | Not Active | Not Active | Not Active | Not Active | Not Active | Not Active |  |  |  |  |  |  |  |  |  |  | 
12 | Cn1ccnc1S [METHIMAZOLE] | Not Active | Not Active | Not Active | Not Active | Not Active | Not Active | Not Active | Not Active |  |  |  |  |  |  |  |  |  |  | 
13 | CC[C@@H](CO)NC(=O)[C@@H]1C=C2c3cccc4[nH]cc(c34)C[C@H]2N(C)C1 [METHYLERGONOVINE] | Not Active | Not Active | Not Active | Not Active | Not Active | Not Active | Not Active |  |  |  |  |  |  |  |  |  |  |  | 
14 | COc1nc(C)nc(Cl)c1NC1=NCCN1 [MOXONIDINE] | Not Active | Not Active | Not Active | Not Active | Not Active | Not Active | Not Active | Not Active |  |  |  |  |  |  |  |  |  |  | 
15 | COc1c(C)c2c(c(O)c1C/C=C(\C)CCC(=O)O)C(=O)OC2 [MYCOPHENOLIC ACID] | Not Active | Not Active | Not Active | Not Active | Not Active | Not Active | Not Active | Not Active |  |  |  |  |  |  |  |  |  |  | 
16 | O=c1ncn2nc(Sc3ccc(F)cc3F)ccc2c1-c1c(Cl)cccc1Cl [NEFLAMAPIMOD] |  |  | Not Active | Not Active | Not Active | Not Active | Not Active | Not Active |  | 12 µM | 9.77 µM |  |  |  |  |  |  |  | 
17 | CN1CCN(CCCN2c3ccccc3Sc3ccc(Cl)cc32)CC1 [PROCHLORPERAZINE] |  |  | Not Active |  |  | Not Active |  | Not Active | 5.68 µM |  |  |  |  |  |  |  |  |  | 

Row | Compound | IC50 [1] | Ki [1] | IC50 ([2]; cho-k1) | IC50 [3] | Ki [3] | IC50 ([4]; insect cells) | IC50 ([5]; insect cells) | IC50 ([6]; cho-k1) | IC50 ([5]; read-out: IC50) | IC50 ([1]; read-out: IC50) | Ki ([1]; read-out: Ki) | IC50 ([4]; read-out: IC50) | IC50 ([2]; read-out: IC50) | Ki ([2]; read-out: Ki) | Ki [6] | IC50 ([6]; read-out: IC50) | Ki ([2]; cho-k1) | Ki ([4]; insect cells) | Ki ([5]; insect cells)
18 | CO[C@H]1/C=C/O[C@@]2(C)Oc3c(C)c(O)c4c(O)c(c(/C=N/N5CCN(C)CC5)c(O)c4c3C2=O)NC(=O)/C(C)=C\C=C\[C@H](C)[C@H](O)[C@@H](C)[C@@H](O)[C@@H](C)[C@H](OC(C)=O)[C@@H]1C [RIFAMPIN] | Not Active | Not Active | Not Active | Not Active | Not Active | Not Active | Not Active | Not Active |  |  |  |  |  |  |  |  |  |  | 
19 | Nc1nc2ccc(OC(F)(F)F)cc2s1 [RILUZOLE] | Not Active | Not Active | Not Active | Not Active | Not Active | Not Active | Not Active | Not Active |  |  |  |  |  |  |  |  |  |  | 
20 | Cc1nc2n(c(=O)c1CCN1CCC(c3noc4cc(F)ccc34)CC1)CCCC2 [RISPERIDONE] |  |  | Not Active |  |  | Not Active | Not Active | Not Active |  |  |  |  |  |  |  |  |  |  | 
21 | C=CCC1(C(C)CCC)C(=O)NC(=O)NC1=O (stereo unspecified) [SECOBARBITAL] | Not Active | Not Active | Not Active | Not Active | Not Active | Not Active | Not Active | Not Active |  |  |  |  |  |  |  |  |  |  | 
22 | C[C@@H]1CN(c2c(F)c(N)c3c(=O)c(C(=O)O)cn(C4CC4)c3c2F)C[C@H](C)N1 [SPARFLOXACIN] | Not Active | Not Active | Not Active | Not Active | Not Active | Not Active | Not Active | Not Active |  |  |  |  |  |  |  |  |  |  | 
23 | Cc1noc(NS(=O)(=O)c2ccc(N)cc2)c1C [SULFISOXAZOLE] | Not Active | Not Active | Not Active | Not Active | Not Active | Not Active | Not Active | Not Active |  |  |  |  |  |  |  |  |  |  | 
24 | CSc1ccc(/C=C2/C(C)=C(CC(=O)O)c3cc(F)ccc32)cc1 [SULINDAC SULFIDE] | Not Active | Not Active |  | Not Active | Not Active |  | Not Active |  |  |  |  | 24 µM | 29.4 µM | 14.7 µM | 13.7 µM | 33.7 µM |  |  | 
25 | Nc1c2c(nc3ccccc13)CCCC2 [TACRINE] | Not Active | Not Active | Not Active | Not Active | Not Active | Not Active | Not Active | Not Active |  |  |  |  |  |  |  |  |  |  | 
26 | CC/C(=C(\c1ccccc1)c1ccc(OCCN(C)C)cc1)c1ccccc1 [TAMOXIFEN] |  |  | Not Active |  |  |  |  |  | 1.2 µM |  |  | 3.55 µM |  |  | 7.14 µM | 17.6 µM |  |  | 
27 | CC(C)N1CCN(c2ccc(OCC3COC(Cn4cncn4)(c4ccc(Cl)cc4Cl)O3)cc2)CC1 (stereo unspecified) [TERCONAZOLE] | Not Active | Not Active | Not Active |  |  | Not Active |  | Not Active | 10.9 µM |  |  |  |  |  |  |  |  |  | 
28 | Nc1nc2nc[nH]c2c(=S)[nH]1 [THIOGUANINE] | Not Active | Not Active | Not Active | Not Active | Not Active | Not Active | Not Active | Not Active |  |  |  |  |  |  |  |  |  |  | 
29 | Cc1cccc(N(C)C(=S)Oc2ccc3ccccc3c2)c1 [TOLNAFTATE] | Not Active | Not Active | Not Active | Not Active | Not Active | Not Active | Not Active | Not Active |  |  |  |  |  |  |  |  |  |  | 
30 | NC[C@H]1CC[C@H](C(=O)O)CC1 [TRANEXAMIC ACID] | Not Active | Not Active | Not Active | Not Active | Not Active | Not Active | Not Active | Not Active |  |  |  |  |  |  |  |  |  |  | 
31 | N[C@@H]1[C@H]2CN(c3nc4c(cc3F)c(=O)c(C(=O)O)cn4-c3ccc(F)cc3F)C[C@@H]12 [TROVAFLOXACIN] | Not Active | Not Active | Not Active | Not Active | Not Active |  | Not Active | Not Active |  |  |  |  |  |  |  |  |  |  | 
32 | N#CC(C#N)=Cc1ccc(O)c(O)c1 [TYRPHOSTIN 23] | Not Active | Not Active | Not Active | Not Active | Not Active |  | Not Active | Not Active |  |  |  |  |  |  |  |  |  |  | 
33 | SODIUM NITROPRUSSIDE | Not Active | Not Active | Not Active | Not Active | Not Active | Not Active | Not Active |  |  |  |  |  |  |  |  |  | Not Active | Not Active | Not Active
